Active and inactive are the calls of the source. The calls are words filed in the database; no cut-off is given here.
Tests used:
[1] = tested on: HCT-116; test: Antiproliferative activity against human HCT-116 cells assessed as reduction in cell viability at 10 uM incubated for 6 to 72 hrs by Hoechst33342 staining based analysis; assay type: functional; conditions: time 6-72 hrs
[2] = biological target: T1, Serine/threonine-protein kinase 3 (Homo sapiens, UniProt Q13188); test: Inhibition of MST2 (unknown origin) expressed in HEK293T cells using NanoGlo as substrate incubated for 20 hrs by NanoBRET assay; assay type: cell-based
T1 sequence (Q13188 whole entry): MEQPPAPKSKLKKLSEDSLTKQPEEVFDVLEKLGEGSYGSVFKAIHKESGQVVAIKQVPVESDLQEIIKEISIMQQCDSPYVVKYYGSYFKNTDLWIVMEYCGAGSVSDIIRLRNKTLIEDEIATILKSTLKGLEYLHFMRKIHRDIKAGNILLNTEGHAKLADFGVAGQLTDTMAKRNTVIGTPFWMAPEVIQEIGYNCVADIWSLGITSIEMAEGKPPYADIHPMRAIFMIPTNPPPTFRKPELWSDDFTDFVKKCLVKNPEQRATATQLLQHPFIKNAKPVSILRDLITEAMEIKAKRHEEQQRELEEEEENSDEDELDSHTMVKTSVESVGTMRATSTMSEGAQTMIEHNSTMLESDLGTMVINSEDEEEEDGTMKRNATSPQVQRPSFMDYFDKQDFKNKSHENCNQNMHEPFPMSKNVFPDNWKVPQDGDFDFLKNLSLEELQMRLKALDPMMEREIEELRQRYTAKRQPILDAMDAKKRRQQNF

[3] = biological target: T2, Serine/threonine-protein kinase Nek2 (Homo sapiens, UniProt P51955); test: Inhibition of NEK2 (unknown origin) expressed in HEK293T cells using NanoGlo as substrate incubated for 20 hrs by NanoBRET assay; assay type: cell-based
T2 sequence (P51955 whole entry): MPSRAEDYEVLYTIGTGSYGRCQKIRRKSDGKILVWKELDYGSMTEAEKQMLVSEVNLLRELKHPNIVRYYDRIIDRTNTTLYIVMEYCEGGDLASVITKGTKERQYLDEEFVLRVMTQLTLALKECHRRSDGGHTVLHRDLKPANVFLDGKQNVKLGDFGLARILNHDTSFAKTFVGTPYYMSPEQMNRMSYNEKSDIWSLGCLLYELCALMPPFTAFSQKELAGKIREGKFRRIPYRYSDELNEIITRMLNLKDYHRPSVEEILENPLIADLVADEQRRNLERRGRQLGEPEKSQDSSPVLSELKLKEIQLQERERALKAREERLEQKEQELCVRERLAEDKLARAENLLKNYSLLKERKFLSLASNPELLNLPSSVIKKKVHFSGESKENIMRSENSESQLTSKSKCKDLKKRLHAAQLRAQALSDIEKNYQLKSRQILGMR

[4] = biological target: Tyrosine-protein kinase Fes/Fps (Homo sapiens, UniProt P07332); test: Inhibition of FES (unknown origin) expressed in HEK293T cells using NanoGlo as substrate incubated for 20 hrs by NanoBRET assay; assay type: cell-based
Sequence of Tyrosine-protein kinase Fes/Fps (P07332 whole entry): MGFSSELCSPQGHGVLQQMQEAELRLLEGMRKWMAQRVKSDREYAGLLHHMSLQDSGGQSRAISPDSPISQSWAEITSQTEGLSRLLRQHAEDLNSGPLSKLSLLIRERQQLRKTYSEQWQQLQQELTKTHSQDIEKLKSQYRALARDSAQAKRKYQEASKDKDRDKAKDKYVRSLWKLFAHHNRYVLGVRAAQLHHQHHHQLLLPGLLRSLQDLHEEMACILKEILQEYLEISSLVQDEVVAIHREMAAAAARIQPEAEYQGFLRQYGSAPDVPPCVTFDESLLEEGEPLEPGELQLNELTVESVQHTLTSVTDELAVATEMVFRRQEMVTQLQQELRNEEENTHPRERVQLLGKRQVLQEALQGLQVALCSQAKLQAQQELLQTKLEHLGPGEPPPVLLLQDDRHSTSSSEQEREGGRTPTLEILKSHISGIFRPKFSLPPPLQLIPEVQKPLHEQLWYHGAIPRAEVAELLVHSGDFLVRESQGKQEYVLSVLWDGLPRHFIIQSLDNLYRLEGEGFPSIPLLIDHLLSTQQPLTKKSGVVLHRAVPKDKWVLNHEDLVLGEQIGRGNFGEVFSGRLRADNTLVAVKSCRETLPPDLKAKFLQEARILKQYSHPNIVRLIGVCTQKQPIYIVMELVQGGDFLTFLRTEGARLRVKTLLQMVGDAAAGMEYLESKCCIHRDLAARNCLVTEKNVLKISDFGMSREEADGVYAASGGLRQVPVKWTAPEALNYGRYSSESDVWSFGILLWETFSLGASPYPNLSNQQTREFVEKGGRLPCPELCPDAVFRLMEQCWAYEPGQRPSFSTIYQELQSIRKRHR

[5] = biological target: Serine/threonine-protein kinase SIK2 (Homo sapiens, UniProt Q9H0K1); test: Inhibition of SIK2 (unknown origin) expressed in HEK293T cells using NanoGlo as substrate incubated for 20 hrs by NanoBRET assay; assay type: cell-based
Sequence of Serine/threonine-protein kinase SIK2 (Q9H0K1 whole entry): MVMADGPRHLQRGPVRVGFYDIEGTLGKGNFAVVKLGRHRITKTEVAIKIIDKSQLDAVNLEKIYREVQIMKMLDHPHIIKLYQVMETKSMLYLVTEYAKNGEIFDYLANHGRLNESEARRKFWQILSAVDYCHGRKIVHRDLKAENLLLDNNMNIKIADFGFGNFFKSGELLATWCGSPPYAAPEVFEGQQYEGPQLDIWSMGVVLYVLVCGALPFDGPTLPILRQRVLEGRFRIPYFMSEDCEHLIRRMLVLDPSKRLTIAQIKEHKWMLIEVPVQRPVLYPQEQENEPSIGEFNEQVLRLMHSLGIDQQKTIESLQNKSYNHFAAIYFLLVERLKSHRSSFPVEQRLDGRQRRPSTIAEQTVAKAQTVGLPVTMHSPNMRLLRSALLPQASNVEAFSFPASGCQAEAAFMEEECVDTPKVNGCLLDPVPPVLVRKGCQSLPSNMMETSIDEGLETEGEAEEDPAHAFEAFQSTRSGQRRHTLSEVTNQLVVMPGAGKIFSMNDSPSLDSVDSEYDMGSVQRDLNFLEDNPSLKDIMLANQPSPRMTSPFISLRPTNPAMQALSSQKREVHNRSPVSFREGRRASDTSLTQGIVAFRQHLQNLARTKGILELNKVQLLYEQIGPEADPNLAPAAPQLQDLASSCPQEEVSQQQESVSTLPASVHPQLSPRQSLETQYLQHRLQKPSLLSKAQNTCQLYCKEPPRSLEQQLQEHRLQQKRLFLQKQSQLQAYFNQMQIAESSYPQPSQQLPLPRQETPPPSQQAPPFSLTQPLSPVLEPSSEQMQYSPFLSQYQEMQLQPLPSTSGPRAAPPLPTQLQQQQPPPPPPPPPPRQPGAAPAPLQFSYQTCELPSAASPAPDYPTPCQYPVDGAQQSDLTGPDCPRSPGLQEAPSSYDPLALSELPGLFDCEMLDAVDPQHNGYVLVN

[6] = tested on: HCT-116; test: Antiproliferative activity against human HCT-116 cells assessed as reduction in cell viability at 10 uM incubated for 48 hrs by Hoechst33342 staining based analysis; assay type: functional
[7] = biological target: T3, Serine/threonine-protein kinase 24 (Homo sapiens, UniProt Q9Y6E0); test: Inhibition of MST3 (unknown origin) expressed in lysed HEK293T cells using NanoGlo as substrate incubated for 20 hrs by NanoBRET assay; assay type: cell-based
Target sequence in this assay (Q9Y6E0 whole entry): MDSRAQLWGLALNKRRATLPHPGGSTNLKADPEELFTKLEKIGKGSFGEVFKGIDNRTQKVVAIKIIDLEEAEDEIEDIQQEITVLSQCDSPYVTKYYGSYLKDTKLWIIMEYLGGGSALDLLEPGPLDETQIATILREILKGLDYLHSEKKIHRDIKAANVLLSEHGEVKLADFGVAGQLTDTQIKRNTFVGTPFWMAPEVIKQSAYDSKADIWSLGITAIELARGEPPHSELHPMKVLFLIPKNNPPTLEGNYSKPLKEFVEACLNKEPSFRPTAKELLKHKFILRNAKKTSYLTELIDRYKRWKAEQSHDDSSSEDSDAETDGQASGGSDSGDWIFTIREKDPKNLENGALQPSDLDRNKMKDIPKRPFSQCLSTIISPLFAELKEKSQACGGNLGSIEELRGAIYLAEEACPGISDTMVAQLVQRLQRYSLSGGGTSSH

[8] = tested on: HCT-116; test: Induction of cell cycle arrest in human HCT-116 cells assessed as accumulation of cells at G1 phase at 10 uM incubated for 72 hrs by FUCCI based analysis; assay type: functional
[9] = biological target: T4, Serine/threonine-protein kinase 26 (Homo sapiens, UniProt Q9P289); test: Inhibition of MST4 (unknown origin) expressed in HEK293T cells using NanoGlo as substrate incubated for 20 hrs by NanoBRET assay; assay type: cell-based
Target sequence in this assay (Q9P289 whole entry): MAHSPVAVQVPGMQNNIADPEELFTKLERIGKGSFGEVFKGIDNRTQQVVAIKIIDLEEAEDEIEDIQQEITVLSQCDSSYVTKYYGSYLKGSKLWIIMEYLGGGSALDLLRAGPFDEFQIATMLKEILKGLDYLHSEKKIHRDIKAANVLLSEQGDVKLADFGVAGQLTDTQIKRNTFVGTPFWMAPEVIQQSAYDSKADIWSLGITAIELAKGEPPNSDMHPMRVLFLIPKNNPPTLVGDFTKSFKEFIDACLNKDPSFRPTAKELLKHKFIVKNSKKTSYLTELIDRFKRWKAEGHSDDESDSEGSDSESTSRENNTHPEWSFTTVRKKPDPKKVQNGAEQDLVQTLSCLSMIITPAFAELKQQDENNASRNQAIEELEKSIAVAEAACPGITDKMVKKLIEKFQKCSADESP

[10] = Microsomal stability in Sprague-Dawley rat liver microsome incubated for 1 hr by HPLC analysis; assay type: ADME; conditions: liver microsomes, read-out: Stability
[11] = biological target: Casein kinase I isoform epsilon (Homo sapiens, UniProt P49674); test: Inhibition of CK1e (unknown origin) expressed in HEK293T cells using NanoGlo as substrate incubated for 20 hrs by NanoBRET assay; assay type: cell-based
Sequence of Casein kinase I isoform epsilon (P49674 whole entry, canonical isoform): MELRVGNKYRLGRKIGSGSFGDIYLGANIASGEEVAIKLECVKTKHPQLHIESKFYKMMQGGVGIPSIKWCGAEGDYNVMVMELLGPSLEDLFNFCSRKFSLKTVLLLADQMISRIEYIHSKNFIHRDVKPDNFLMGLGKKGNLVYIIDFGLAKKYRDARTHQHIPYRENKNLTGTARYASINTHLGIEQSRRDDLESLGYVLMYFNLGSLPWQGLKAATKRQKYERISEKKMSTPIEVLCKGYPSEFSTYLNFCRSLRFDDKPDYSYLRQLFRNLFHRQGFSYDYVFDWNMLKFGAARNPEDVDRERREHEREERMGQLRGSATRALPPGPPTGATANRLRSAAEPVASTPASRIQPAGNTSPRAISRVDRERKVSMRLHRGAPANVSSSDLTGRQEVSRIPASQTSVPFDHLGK

[12] = biological target: T3, Serine/threonine-protein kinase 24; test: Inhibition of MST3 (unknown origin) expressed in intact HEK293T cells using NanoGlo as substrate incubated for 20 hrs by NanoBRET assay; assay type: cell-based
Target sequence in this assay (Q9Y6E0 whole entry): as the sequence (Q9Y6E0 whole entry) above

[13] = biological target: T5, Serine/threonine-protein kinase 3 (Homo sapiens) (UniProt Q13188); test: Binding affinity to recombinant MST2 (unknown origin) assessed as change in melting temperature by DSF analysis
T5 sequence (whole entry): T1 sequence (Q13188 whole entry)

[14] = biological target: T6, Serine/threonine-protein kinase 4 (Homo sapiens, UniProt Q13043); test: Inhibition of MST1 (unknown origin) expressed in HEK293T cells using NanoGlo as substrate incubated for 20 hrs by NanoBRET assay; assay type: cell-based
T6 sequence (Q13043 whole entry): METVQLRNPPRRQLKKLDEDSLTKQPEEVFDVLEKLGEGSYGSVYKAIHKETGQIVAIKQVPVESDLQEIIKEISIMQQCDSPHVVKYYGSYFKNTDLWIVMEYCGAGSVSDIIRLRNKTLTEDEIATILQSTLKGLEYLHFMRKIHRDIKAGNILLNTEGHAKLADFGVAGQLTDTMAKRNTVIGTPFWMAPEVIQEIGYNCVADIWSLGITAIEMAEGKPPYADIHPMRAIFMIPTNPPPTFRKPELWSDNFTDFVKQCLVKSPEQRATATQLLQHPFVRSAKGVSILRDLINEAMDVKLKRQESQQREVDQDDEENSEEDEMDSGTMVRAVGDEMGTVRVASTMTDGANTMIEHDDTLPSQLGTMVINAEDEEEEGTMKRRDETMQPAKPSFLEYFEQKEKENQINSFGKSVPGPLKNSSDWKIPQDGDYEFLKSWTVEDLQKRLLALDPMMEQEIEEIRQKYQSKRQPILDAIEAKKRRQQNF

[15] = biological target: T3, Serine/threonine-protein kinase 24; test: Binding affinity to recombinant MST3 (unknown origin) assessed as change in melting temperature by DSF analysis
Target sequence in this assay (Q9Y6E0 whole entry, looked up): as the sequence (Q9Y6E0 whole entry) above

[16] = tested on: HCT-116; test: Induction of apoptosis in human HCT-116 cells assessed as effect on cell count at 1 uM incubated for 72 hrs by Hoechst33342 staining based analysis; assay type: functional
[17] = tested on: HCT-116; test: Antiproliferative activity against human HCT-116 cells assessed as reduction in cell viability at 1 to 10 uM incubated for 24 hrs by Hoechst33342 staining based analysis; assay type: functional; conditions: dose 1-10 µM
[18] = biological target: T7, Serine/threonine-protein kinase 4 (Homo sapiens) (UniProt Q13043); test: Binding affinity to recombinant MST1 (unknown origin) assessed as change in melting temperature by DSF analysis
T7 sequence (whole entry): T6 sequence (Q13043 whole entry)

[19] = biological target: T4, Serine/threonine-protein kinase 26; test: Binding affinity to recombinant MST4 (unknown origin) assessed as change in melting temperature by DSF analysis
Target sequence in this assay (Q9P289 2-416 limits assumed): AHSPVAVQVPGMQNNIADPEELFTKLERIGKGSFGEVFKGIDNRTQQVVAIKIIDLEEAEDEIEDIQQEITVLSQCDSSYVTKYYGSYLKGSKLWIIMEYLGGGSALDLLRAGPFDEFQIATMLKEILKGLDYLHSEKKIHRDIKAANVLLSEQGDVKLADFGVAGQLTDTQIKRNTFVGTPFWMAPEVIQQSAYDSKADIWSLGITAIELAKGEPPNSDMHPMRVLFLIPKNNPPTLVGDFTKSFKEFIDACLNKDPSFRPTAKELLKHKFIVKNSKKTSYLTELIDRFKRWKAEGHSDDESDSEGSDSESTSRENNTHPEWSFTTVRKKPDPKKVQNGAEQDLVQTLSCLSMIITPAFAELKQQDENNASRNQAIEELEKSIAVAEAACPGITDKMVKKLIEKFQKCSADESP

[20] = biological target: Serine/threonine-protein kinase PAK 1 (Homo sapiens) (UniProt Q13153); test: Binding affinity to recombinant PAK1 (unknown origin) assessed as change in melting temperature by DSF analysis
Sequence of Serine/threonine-protein kinase PAK 1 (Homo sapiens) (Q13153 whole entry): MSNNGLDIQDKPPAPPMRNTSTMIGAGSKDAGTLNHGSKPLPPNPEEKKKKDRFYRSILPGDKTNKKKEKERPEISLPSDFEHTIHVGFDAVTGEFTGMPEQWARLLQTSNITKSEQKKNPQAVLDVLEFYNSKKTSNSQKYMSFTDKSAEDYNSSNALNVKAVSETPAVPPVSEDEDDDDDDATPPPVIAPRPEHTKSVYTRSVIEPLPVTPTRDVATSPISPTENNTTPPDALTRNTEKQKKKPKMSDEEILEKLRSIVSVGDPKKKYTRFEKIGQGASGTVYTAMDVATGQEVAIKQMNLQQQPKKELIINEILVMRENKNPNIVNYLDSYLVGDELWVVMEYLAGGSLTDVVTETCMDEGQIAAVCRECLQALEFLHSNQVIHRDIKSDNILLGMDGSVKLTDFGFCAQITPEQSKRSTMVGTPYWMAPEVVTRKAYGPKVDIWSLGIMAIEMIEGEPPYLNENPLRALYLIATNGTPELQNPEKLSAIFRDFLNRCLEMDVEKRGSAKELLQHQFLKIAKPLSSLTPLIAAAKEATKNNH

[21] = biological target: T6, Serine/threonine-protein kinase 4
[22] = biological target: T1, Serine/threonine-protein kinase 3
[23] = biological target: T3, Serine/threonine-protein kinase 24; test: Inhibition of MST3 (unknown origin)
Target sequence in this assay (Q9Y6E0 whole entry): as the sequence (Q9Y6E0 whole entry) above

[24] = biological target: T4, Serine/threonine-protein kinase 26; test: Inhibition of MST4 (unknown origin)
Target sequence in this assay (Q9P289 whole entry): as the sequence (Q9P289 whole entry) above

[25] = tested on: HCT-116; test: Induction of apoptosis in human HCT-116 cells assessed as increase in cell count at 10 uM incubated for 48 hrs by Hoechst33342 staining based analysis; assay type: functional
[26] = tested on: HCT-116; test: Induction of cell cycle arrest in human HCT-116 cells assessed as accumulation of cells at G2/M phase incubated for 72 hrs by FUCCI based analysis; assay type: functional; conditions: dose 10.0 µM
[27] = tested on: HCT-116; test: Induction of apoptosis in human HCT-116 cells assessed as effect on cell count at 10 uM incubated for 72 hrs by Hoechst33342 staining based analysis; assay type: functional
[28] = tested on: HCT-116; test: Induction of apoptosis in human HCT-116 cells assessed as increase in fluorescence intensity at 10 uM incubated for 24 hrs by Hoechst33342 staining based analysis; assay type: functional, cell-based
[29] = biological target: T3, Serine/threonine-protein kinase 24; test: Inhibition of MST3 (unknown origin) expressed in HEK293T cells using NanoGlo as substrate incubated for 20 hrs by NanoBRET assay; assay type: cell-based
Target sequence in this assay (Q9Y6E0 whole entry): as the sequence (Q9Y6E0 whole entry) above

Compound	Activity [1]	EC50 [2]	EC50 [5]	EC50 [7]	EC50 [9]	EC50 [12]	ΔTm [13]	EC50 [14]	ΔTm [15]	ΔTm [18]	ΔTm [19]	ΔTm [20]	further results
CC(=O)NC1CCN(c2ncnc3[nH]cc(-c4cccc(Cl)c4)c23)CC1	inactive	–	–	–	–	–	–	–	–	–	–	–	–
Cc1cccc(-c2ccc(-c3cc4cnc(NC(CO)CO)nc4n(CCCCN)c3=O)c(Cl)c2)n1	inactive	> 50000 nM	7400 nM	81 nM	583 nM	57 nM	4.6 °C	> 50000 nM	10.6 °C	2.1 °C	8.1 °C	5.1 °C	EC50 [3]: > 5000 nM; EC50 [4]: > 50000 nM; Activity [6]: 30%; Activity [8]: Active; remaining at 1 h [10]: 90%; EC50 [11]: 17600 nM; Activity [16]: Active; Activity [17]: >90%
Cc1cccc(-c2ccc(-c3cc4cnc(NCCCN5CCCC5=O)nc4n(CCCCN)c3=O)c(Cl)c2)n1	inactive	16900 nM	1300 nM	56 nM	1100 nM	178 nM	2.2 °C	15100 nM	10.6 °C	1.1 °C	7.5 °C	3.6 °C	Activity [6]: 30%; Activity [8]: Active; Activity [16]: Active
CN1C(=O)c2sccc2N(C)c2nc(Nc3ccc(S(N)(=O)=O)cc3)ncc21	–	–	–	–	–	–	–	–	–	–	–	–	IC50 [21]: 162 nM; IC50 [22]: 493 nM
CCS(=O)(=O)Nc1ccc2c(c1)/C(=C(/Nc1ccc(CN3CCCCC3)cc1)c1ccccc1)C(=O)N2 [HESPERADIN]	–	–	–	–	–	–	–	–	–	–	–	–	IC50 [23]: 10 nM; IC50 [24]: 6 nM
N#Cc1cccc(-c2c[nH]c3ncnc(N4CCOCC4)c23)c1	inactive	–	–	–	–	–	–	–	–	–	–	–	Activity [25]: Active; Activity [26]: Dose-Dependent Effect
CCOc1cc2ncc(C#N)c(Nc3ccc(OCc4ccccn4)c(Cl)c3)c2cc1NC(=O)/C=C/CN(C)C [NERATINIB]	–	–	–	–	–	–	–	–	–	–	–	–	IC50 [23]: 7 nM; IC50 [24]: 7 nM
CNC(=O)c1nn(C)c2c1C(C)(C)Cc1cnc(Nc3ccc(N4CCN(C)CC4)cc3)nc1-2	–	–	–	–	–	–	–	–	–	–	–	–	Activity [8]: Active
Cc1cccc(-c2ccc(-c3cc4cnc(Nc5cc(C(F)(F)F)ccc5C)nc4n(CCCCN)c3=O)c(Cl)c2)n1	–	5500 nM	5500 nM	367 nM	2200 nM	–	10.2 °C	5700 nM	13 °C	5.8 °C	9.5 °C	5.9 °C	–
Cc1cccc(-c2ccc(-c3cc4cnc(NCCCN5CCOCC5)nc4n(CCCCN)c3=O)c(Cl)c2)n1	inactive	10200 nM	512 nM	27 nM	115 nM	55 nM	5.9 °C	5300 nM	11.6 °C	3.6 °C	10.6 °C	4.1 °C	Activity [27]: Active; Activity [28]: Active
CNc1ncc2cc(-c3ccc(-c4cccc(C)n4)cc3Cl)c(=O)n(CCCCN)c2n1	inactive	2600 nM	99 nM	42 nM	457 nM	221 nM	7.9 °C	4100 nM	11.7 °C	5.6 °C	11.4 °C	6.5 °C	EC50 [29]: 42 nM; Activity [27]: Active; Activity [28]: Active
Cc1cccc(-c2ccc(-c3cc4cnc(Nc5ccc(CCCO)cc5)nc4n(CCCCN)c3=O)c(Cl)c2)n1	–	249 nM	49 nM	20 nM	48 nM	20 nM	13.7 °C	251 nM	16.7 °C	8.7 °C	15.3 °C	9.1 °C	Activity [28]: Active

Reference: ChEMBL document CHEMBL5528076, “Development of Selective Pyrido[2,3-d]pyrimidin-7(8H)-one-Based Mammalian STE20-Like (MST3/4) Kinase Inhibitors” (J Med Chem, 2024)
